Values joined by “and” are separate entries in the source; they are usually repeats but may differ in a detail not shown here. Equal entries are not always repeated. Inconclusive results and toxic doses are left out. Starred links: 1 amine or outer side, 2 acyl side, 3 side chain; linkers in the order of their positions; H or OH if unused. Positions of bridges follow the written chain, without caps; N, C: chain ends. Non-standard residues stand in square brackets, D forms with d. Residues, ends and D or L forms follow the SMILES beside them. Chains are numbered I, II in the order given. Actinocin(9to1) = Cc1c2oc3c(C)ccc(C(=O)[*:1])c3nc-2c(C(=O)[*:2])c(N)c1=O; aThr = C[C@H](O)[C@H](N)C(=O)O; NMeV = CN[C@H](C(=O)O)C(C)C; Sar = CNCC(=O)O
Test system: CD2F1 mice, L1210 leukemia ip, survival T/C
Assay: NCI In Vivo Anticancer Drug Screen. Data for tumor model L1210 Leukemia (intraperitoneal) in CD2F1 (CDF1) mice
Conditions: higher = longer survival
In short: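 Vehicle-treated tumor-bearing mice served as controls (C) for compound-treated mice (T). Reported figure is T divided by C.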

[1] = endpoint: mean survival time, dose: 50.0 mg/kg/injection, schedule: Q01DX009 (ip), vehicle: saline with Tween-80
[2] = endpoint: mean survival time, dose: 100.0 mg/kg/injection, schedule: Q01DX009 (ip), vehicle: saline with Tween-80
[3] = endpoint: mean survival time, dose: 100.0 mg/kg/injection, schedule: Q04DX003 (ip), vehicle: saline with Tween-80
[4] = endpoint: mean survival time, dose: 200.0 mg/kg/injection, schedule: Q04DX003 (ip), vehicle: saline with Tween-80
[5] = endpoint: mean survival time, dose: 25.0 mg/kg/injection, schedule: Q01DX009 (ip), vehicle: saline with Tween-80

Structure (SMILES): Cc1c2oc3c(C)ccc(C(=O)N[C@@H]4C(=O)N[C@H](C(C)C)C(=O)N5CCC[C@H]5C(=O)N(C)CC(=O)N(C)[C@@H](C(C)C)C(=O)O[C@H]4C)c3nc-2c(C(=O)N[C@@H]2C(=O)N[C@H](C(C)C)C(=O)N3CCC[C@H]3C(=O)N(C)CC(=O)N(C)[C@@H](C(C)C)C(=O)O[C@H]2C)c(N)c1=O (I: [aThr][dV]P[Sar][NMeV] / II: [aThr][dV]P[Sar][NMeV]; ester I:1-I:C, II:1-II:C; linker I:N-II:N via Actinocin(9to1))
- T/C (endpoint: mean survival time, dose: 0.01 mg/kg/injection, schedule: Q04DX003 (ip), vehicle: saline): 101 % of control
- T/C (endpoint: mean survival time, dose: 0.02 mg/kg/injection, schedule: Q04DX003 (ip), vehicle: saline): 105 % of control
- T/C (endpoint: mean survival time, dose: 0.03 mg/kg/injection, schedule: Q04DX003 (ip), vehicle: saline): 107 % of control
- T/C (endpoint: mean survival time, dose: 0.05 mg/kg/injection, schedule: Q04DX003 (ip), vehicle: saline): 110 % of control
- T/C (endpoint: mean survival time, dose: 0.06 mg/kg/injection, schedule: Q01DX009 (ip), vehicle: saline): 99 % of control
- T/C (endpoint: mean survival time, dose: 0.1 mg/kg/injection, schedule: Q01DX007 (ip), vehicle: other): 162 % of control
- T/C (endpoint: mean survival time, dose: 0.1 mg/kg/injection, schedule: Q01DX009 (ip), vehicle: other): 120 % of control
- T/C (endpoint: mean survival time, dose: 0.1 mg/kg/injection, schedule: Q03DX003 (ip), vehicle: other): 165 % of control
- T/C (endpoint: mean survival time, dose: 0.2 mg/kg/injection, schedule: Q01DX009 (ip), vehicle: other): 90 % of control
- T/C (endpoint: mean survival time, dose: 0.2 mg/kg/injection, schedule: Q01DX009 (ip), vehicle: saline): 88 % of control
- T/C (endpoint: mean survival time, dose: 0.2 mg/kg/injection, schedule: Q04DX003 (ip), vehicle: other): 164 % of control
- T/C (endpoint: mean survival time, dose: 0.4 mg/kg/injection, schedule: Q01DX001 (ip), vehicle: saline): 114 % of control and 120 % of control
- T/C (endpoint: mean survival time, dose: 0.4 mg/kg/injection, schedule: Q03DX003 (ip), vehicle: other): 86 % of control
- T/C (endpoint: mean survival time, dose: 0.6 mg/kg/injection, schedule: Q01DX001 (ip), vehicle: saline): 122 % of control
- T/C (endpoint: mean survival time, dose: 6.25 micrograms/kg/injection, schedule: Q01DX009 (ip), vehicle: saline + alcohol): 104 % of control
- T/C (endpoint: mean survival time, dose: 6.3 micrograms/kg/injection, schedule: Q01DX009 (ip), vehicle: water): 106 % of control
- T/C (endpoint: mean survival time, dose: 12.5 micrograms/kg/injection, schedule: Q01DX009 (ip), vehicle: saline + alcohol): 107 % of control
- T/C (endpoint: mean survival time, dose: 12.5 micrograms/kg/injection, schedule: Q01DX009 (ip), vehicle: water): 114 % of control and 112 % of control
- T/C (endpoint: mean survival time, dose: 25.0 micrograms/kg/injection, schedule: Q01DX009 (ip), vehicle: saline + alcohol): 117 % of control
- T/C (endpoint: mean survival time, dose: 25.0 micrograms/kg/injection, schedule: Q01DX009 (ip), vehicle: water): 118 % of control and 120 % of control
- T/C (endpoint: mean survival time, dose: 50.0 micrograms/kg/injection, schedule: Q01DX009 (ip), vehicle: saline + alcohol): 109 % of control
- T/C (endpoint: mean survival time, dose: 100.0 micrograms/kg/injection, schedule: Q01DX009 (ip), vehicle: water): 115 % of control
- T/C (endpoint: median survival time, dose: 0.07 mg/kg/injection, schedule: Q04DX003 (ip), vehicle: saline): 122 % of control
- T/C (endpoint: median survival time, dose: 0.13 mg/kg/injection, schedule: Q01DX001 (ip), vehicle: saline): 115 % of control and 117 % of control and 118 % of control
- T/C (endpoint: median survival time, dose: 0.25 mg/kg/injection, schedule: Q01DX001 (ip), vehicle: saline): 118 % of control and 112 % of control
- T/C (endpoint: median survival time, dose: 0.33 mg/kg/injection, schedule: Q04DX003 (ip), vehicle: saline): 89 % of control
- T/C (endpoint: median survival time, dose: 0.5 mg/kg/injection, schedule: Q01DX001 (ip), vehicle: saline): 122 % of control
- T/C (endpoint: median survival time, dose: 12.5 micrograms/kg/injection, schedule: Q01DX009 (ip), vehicle: saline + alcohol): 113 % of control
- T/C (endpoint: median survival time, dose: 25.0 micrograms/kg/injection, schedule: Q01DX009 (ip), vehicle: saline + alcohol): 117 % of control
- T/C (endpoint: median survival time, dose: 200.0 micrograms/kg/injection, schedule: Q01DX009 (ip), vehicle: saline + alcohol): 166 % of control

Structure (SMILES): CC/C=N/NC(N)=S
- T/C (endpoint: mean survival time, dose: 5.0 mg/kg/injection, schedule: Q01DX001 (ip), vehicle: saline): 98 % of control
- T/C (endpoint: mean survival time, dose: 10.0 mg/kg/injection, schedule: Q01DX001 (ip), vehicle: saline): 102 % of control
- T/C (endpoint: mean survival time, dose: 20.0 mg/kg/injection, schedule: Q01DX001 (ip), vehicle: saline): 106 % of control

Structure (SMILES): CCOC(=O)CCCCCSc1nn(C2OC(CO)C(O)C2O)c(=O)[nH]c1=O (stereo unspecified)
- T/C (endpoint: mean survival time, dose: 12.5 mg/kg/injection, schedule: Q01DX005 (ip), vehicle: distilled water + Tween-80): 103 % of control
- T/C (endpoint: mean survival time, dose: 25.0 mg/kg/injection, schedule: Q01DX005 (ip), vehicle: distilled water + Tween-80): 98 % of control
- T/C (endpoint: mean survival time, dose: 50.0 mg/kg/injection, schedule: Q01DX005 (ip), vehicle: distilled water + Tween-80): 104 % of control
- T/C (endpoint: mean survival time, dose: 100.0 mg/kg/injection, schedule: Q01DX005 (ip), vehicle: distilled water + Tween-80): 103 % of control
- T/C (endpoint: mean survival time, dose: 200.0 mg/kg/injection, schedule: Q01DX005 (ip), vehicle: distilled water + Tween-80): 97 % of control

Structure (SMILES): Cc1nc(C)c(C(=O)O)cc1C(=O)O
- T/C (endpoint: mean survival time, dose: 100.0 mg/kg/injection, schedule: Q04DX003 (ip), vehicle: saline): 102 % of control
- T/C (endpoint: mean survival time, dose: 200.0 mg/kg/injection, schedule: Q04DX003 (ip), vehicle: saline): 96 % of control
- T/C (endpoint: mean survival time, dose: 400.0 mg/kg/injection, schedule: Q04DX003 (ip), vehicle: saline): 98 % of control

Structure (SMILES): O=P(CCC(O)c1ccccc1)(c1ccccc1)c1ccccc1 (stereo unspecified)
- T/C [1]: 96 % of control
- T/C [2]: 92 % of control
- T/C [3]: 97 % of control
- T/C [4]: 87 % of control

Structure (SMILES): CC(=O)CCC(=O)OCc1ccccc1
- T/C [5]: 102 % of control
- T/C [1]: 96 % of control
- T/C [2]: 108 % of control
- T/C (endpoint: mean survival time, dose: 200.0 mg/kg/injection, schedule: Q01DX009 (ip), vehicle: saline with Tween-80): 101 % of control
- T/C (endpoint: mean survival time, dose: 400.0 mg/kg/injection, schedule: Q01DX009 (ip), vehicle: saline with Tween-80): 98 % of control

Structure (SMILES): COc1ccc(NC(=O)Nc2ccccc2OC)c(OC)c1
- T/C (endpoint: mean survival time, dose: 100.0 mg/kg/injection, schedule: Q04DX002 (ip), vehicle: saline with Tween-80): 94 % of control
- T/C (endpoint: mean survival time, dose: 200.0 mg/kg/injection, schedule: Q04DX002 (ip), vehicle: saline with Tween-80): 94 % of control
- T/C (endpoint: mean survival time, dose: 400.0 mg/kg/injection, schedule: Q04DX002 (ip), vehicle: saline with Tween-80): 87 % of control

Structure (SMILES): CC(C)C(O)C(C)N (stereo unspecified)
- T/C [5]: 113 % of control
- T/C [1]: 95 % of control
- T/C [2]: 93 % of control

Structure (SMILES): CN(C)C(=O)c1cccc(COc2ccc([N+](=O)[O-])cc2Cl)c1
- T/C (endpoint: mean survival time, dose: 100.0 mg/kg/injection, schedule: Q01DX009 (ip), vehicle: saline sonified): 102 % of control
- T/C [3]: 101 % of control
- T/C (endpoint: mean survival time, dose: 200.0 mg/kg/injection, schedule: Q01DX009 (ip), vehicle: saline sonified): 98 % of control
- T/C [4]: 103 % of control
- T/C (endpoint: mean survival time, dose: 400.0 mg/kg/injection, schedule: Q04DX003 (ip), vehicle: saline with Tween-80): 95 % of control
